Data taken from the supplement of paper PMC10883282.

Experiments:
Assay in all cases: relative viability vs DMSO control (72 h) (fraction); higher = more viable cells
[1] = system: RD-ES
Summary of the method: (§1)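 ATPLite readings, expressed as percent growth and averaged over up to triplicate wells, provided relative viability. Before reading, sarcoma cell lines seeded in 384-well plates to reach 80–90% confluence received 2.5 µl of serially diluted compound after 24 h, from source plates of 10 mM to 0.0002 mM. Plates were held 72 h at 37 °C, 5% CO2, with 0.1% DMSO as vehicle and a 5 µM positive control. The data were rescaled to 1 for full and 0 for none.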

[2] = system: SYO-1
Summary of the method: as §1

[3] = system: SK-ES-1
Summary of the method: as §1

[4] = system: G401
Summary of the method: as §1

[5] = system: VA-ES-BJ
Summary of the method: as §1

[6] = system: KHOS-240S
Summary of the method: as §1

[7] = system: HT1080
Summary of the method: as §1

[8] = system: RD
Summary of the method: as §1

[9] = system: SW982
Summary of the method: as §1

[10] = system: SW1353
Summary of the method: as §1

[11] = system: SK-LMS-1
Summary of the method: as §1

[12] = system: MES-SA
Summary of the method: as §1

CN(C)C/C=C/C(=O)Nc1cc2c(Nc3ccc(F)c(Cl)c3)ncnc2cc1O[C@H]1CCOC1 [Afatinib]
Conditions | relative viability
[1], 0.00017 µM | 0.992
[1], 0.00051 µM | 0.986
[1], 0.00152 µM | 1
[1], 0.00457 µM | 0.973
[1], 0.01372 µM | 1
[1], 0.04115 µM | 0.969
[1], 0.1235 µM | 0.914
[1], 0.3704 µM | 0.829
[1], 1.111 µM | 0.647
[1], 3.333 µM | 0.381
[1], 10 µM | 0.0144
[2], 0.00017 µM | 1.03
[2], 0.00051 µM | 1.01
[2], 0.00152 µM | 0.979
[2], 0.00457 µM | 0.949
[2], 0.01372 µM | 0.957
[2], 0.04115 µM | 0.946
[2], 0.1235 µM | 0.903
[2], 0.3704 µM | 0.838
[2], 1.111 µM | 0.5276
[2], 3.333 µM | 0.00877
[2], 10 µM | -0.00643
[3], 0.00017 µM | 1.01
[3], 0.00051 µM | 1.05
[3], 0.00152 µM | 1.04
[3], 0.00457 µM | 0.988
[3], 0.01372 µM | 1.03
[3], 0.04115 µM | 0.959
[3], 0.1235 µM | 0.858
[3], 0.3704 µM | 0.676
[3], 1.111 µM | 0.306
[3], 3.333 µM | 0.117
[3], 10 µM | 0.113
[4], 0.00017 µM | 1.02
[4], 0.00051 µM | 1.03
[4], 0.00152 µM | 1.015
[4], 0.00457 µM | 1.03
[4], 0.01372 µM | 1.03
[4], 0.04115 µM | 0.9814
[4], 0.1235 µM | 0.97
[4], 0.3704 µM | 0.846
[4], 1.111 µM | 0.61
[4], 3.333 µM | 0.472
[4], 10 µM | 0.212
[5], 0.00017 µM | 1.09
[5], 0.00051 µM | 1.1
[5], 0.00152 µM | 1.06
[5], 0.00457 µM | 1.03
[5], 0.01372 µM | 0.983
[5], 0.04115 µM | 0.974
[5], 0.1235 µM | 0.968
[5], 0.3704 µM | 0.911
[5], 1.111 µM | 0.573
[5], 3.333 µM | 0.351
[5], 10 µM | 0.207
[6], 0.00017 µM | 1.06
[6], 0.00051 µM | 1.06
[6], 0.00152 µM | 1.07
[6], 0.00457 µM | 1.08
[6], 0.01372 µM | 1.06
[6], 0.04115 µM | 1.04
[6], 0.1235 µM | 1.03
[6], 0.3704 µM | 0.991
[6], 1.111 µM | 0.715
[6], 3.333 µM | 0.402
[6], 10 µM | 0.0697
[7], 0.00017 µM | 1.1
[7], 0.00051 µM | 1.12
[7], 0.00152 µM | 1.1
[7], 0.00457 µM | 1.08
[7], 0.01372 µM | 1.07
[7], 0.04115 µM | 1.07
[7], 0.1235 µM | 1.11
[7], 0.3704 µM | 1.11
[7], 1.111 µM | 1.02
[7], 3.333 µM | 0.767
[7], 10 µM | 0.173
[8], 0.00017 µM | 1.08
[8], 0.00051 µM | 1.13
[8], 0.00152 µM | 1.15
[8], 0.00457 µM | 1.11
[8], 0.01372 µM | 1.11
[8], 0.04115 µM | 1.07
[8], 0.1235 µM | 1.09
[8], 0.3704 µM | 1.03
[8], 1.111 µM | 0.569
[8], 3.333 µM | 0.0531
[8], 10 µM | 0.022
[9], 0.00017 µM | 1.017
[9], 0.00051 µM | 1.03
[9], 0.00152 µM | 1.03
[9], 0.00457 µM | 1.06
[9], 0.01372 µM | 1.05
[9], 0.04115 µM | 1.02
[9], 0.1235 µM | 0.914
[9], 0.3704 µM | 0.659
[9], 1.111 µM | 0.286
[9], 3.333 µM | 0.183
[9], 10 µM | 0.219
[10], 0.00017 µM | 1.03
[10], 0.00051 µM | 1.01
[10], 0.00152 µM | 0.965
[10], 0.00457 µM | 0.923
[10], 0.01372 µM | 0.822
[10], 0.04115 µM | 0.771
[10], 0.1235 µM | 0.749
[10], 0.3704 µM | 0.653
[10], 1.111 µM | 0.485
[10], 3.333 µM | 0.3677
[10], 10 µM | 0.22
[11], 0.00017 µM | 1.1
[11], 0.00051 µM | 1.1
[11], 0.00152 µM | 1.11
[11], 0.00457 µM | 1.08
[11], 0.01372 µM | 1.13
[11], 0.04115 µM | 1.04
[11], 0.1235 µM | 1.01
[11], 0.3704 µM | 0.879
[11], 1.111 µM | 0.724
[11], 3.333 µM | 0.462
[11], 10 µM | 0.135
[12], 0.00017 µM | 0.967
[12], 0.00051 µM | 0.955
[12], 0.00152 µM | 0.948
[12], 0.00457 µM | 0.947
[12], 0.01372 µM | 0.934
[12], 0.04115 µM | 0.887
[12], 0.1235 µM | 0.885
[12], 0.3704 µM | 0.725
[12], 1.111 µM | 0.452
[12], 3.333 µM | 0.283
[12], 10 µM | 0.24
